This note sets out measurements from publication PMC12316928, “Synthesis and evaluation of novel thiohydantoin derivatives for antidiabetic activity using in silico in vitro and in vivo methods” (Scientific Reports, 2025).

Where “and” joins values, the source holds several entries; their conditions need not be identical. Equal values may be shown once. Entries after “also recorded” stand apart in the source; their conditions may differ.

The target of one series is T1, α-amylase (Sus scrofa, UniProt P00690).
T1 sequence (P00690 16-511): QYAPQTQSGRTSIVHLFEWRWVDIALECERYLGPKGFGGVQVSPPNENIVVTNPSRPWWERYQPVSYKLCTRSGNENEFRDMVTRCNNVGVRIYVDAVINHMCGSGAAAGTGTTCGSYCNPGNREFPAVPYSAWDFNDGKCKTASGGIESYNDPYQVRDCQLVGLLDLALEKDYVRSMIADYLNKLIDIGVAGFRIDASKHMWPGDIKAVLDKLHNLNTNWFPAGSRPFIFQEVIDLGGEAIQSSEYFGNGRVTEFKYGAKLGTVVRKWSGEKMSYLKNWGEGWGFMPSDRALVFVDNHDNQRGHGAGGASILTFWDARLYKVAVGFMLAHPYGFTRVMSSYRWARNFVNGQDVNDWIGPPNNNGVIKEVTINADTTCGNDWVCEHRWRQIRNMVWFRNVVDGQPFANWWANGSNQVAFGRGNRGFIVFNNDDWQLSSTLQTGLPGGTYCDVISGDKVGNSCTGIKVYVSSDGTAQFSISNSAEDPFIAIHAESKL
As to the kind of experiment: α-Amylase inhibitory activity assay (DNSA method). The series is classed as biochemical. How it is done: The inhibitory potential of the synthesized derivatives against α-amylase was determined using the DNSA (3,5-dinitrosalicylic acid) colorimetric method, as reported by Bernfeld[37]. The α-amylase enzyme (from Sigma-Aldrich) was prepared in 20 mM sodium phosphate buffer (pH 6.9). […] After incubation, 100 µL of DNSA reagent was added, and the mixture was heated at 85 °C for 15 min. The reaction was stopped by cooling, and the absorbance was measured at 595 nm. A blank control was prepared to adjust background absorbance, and the percentage inhibition was calculated.

Series [1] concerns STZ-induced diabetic rats. As to the kind of experiment: Effect on FBG, body weight and HbA1C over 6 weeks. It counts as in vivo, Sprague Dawley rats. Details: % Reduction in FBG: concentration or dose not given beside the values. How it is done:
(§1) Diabetes will be induced in rats (n = 6 per group) by a single intraperitoneal injection of 60-100 mg/kg body weight (BW) streptozotocin dissolved in normal saline. After 5 days of streptozotocin injection, the tail vein blood will be collected to determine the fasting blood glucose (FBG) level. Only rats with FBG over 200 mg/dl will be considered diabetic and used for further experimentation.
Diabetic Rats (n = 6 per group) will be randomly assigned to groups of six animals each in order to examine the impact of synthetic derivatives on FBG level, BW, and HbA1C. The course of treatment will last for six weeks. At the beginning of the experiment and at weekly intervals during the first 42 days of therapy, the FBG level and BW will be measured. Rats will be denied food for 12 h while fasting, but they will have unrestricted access to water. Commercial glucose oxidase kits will be used to measure the blood glucose level. Blood 7 will be collected through cardiac puncture at the end of study period and levels of HbA1C will be determined. Metformin will be used as standard for comparison purpose.

Series [2] concerns STZ-induced diabetic rats. The series is described as follows: Physiological parameters (lipid profile). The series is classed as in vivo, Sprague Dawley rats. The settings on record: Fig. 1. How it is done: as §1
Animals will be sacrificed after […] of treatment and parameters including LDL, triglycerides, HDL cholesterol, and glucose will be determined by using KONELAB SYSTEM (Thermo Fisher Scientific, Finland) according to manufacturer’s guidelines.

A short description of series [3]: DPPH free radical scavenging assay. The method, then: The antioxidant activity of synthesized compounds was evaluated using the DPPH free-radical scavenging assay, following the methodology outlined by[34]. This assay is based on the principle that the stable free radical DPPH undergoes a color change from deep purple to yellow upon reduction, indicating hydrogen donation from antioxidant compounds. Different concentrations (3.12, 6.25, 12.5, 25, 50, 100, and 200 µg/mL) of test compounds were prepared in methanol. A 200 µL aliquot of each concentration was mixed with 50 µL of freshly prepared DPPH solution (0.659 mM). The reaction mixtures were incubated at room temperature for 20 min in the dark. Absorbance was recorded at 510 nm using an ELISA microplate reader. Trolox was employed as the reference antioxidant, and the percentage of inhibition was calculated using the following equation:
% Inhibition = [(A0 − A1)/A0] × 100.
Where A0 is the absorbance of the control, and A1 is the absorbance of the sample[34].

Series [4] has as its target T2, α-glucosidase (EC3.2.1.20) (Saccharomyces cerevisiae, UniProt P53341).
T2 construct: purchased Sigma-Aldrich
As to the kind of experiment: α-Glucosidase inhibitory activity assay. It counts as biochemical. To be noted: read-out: %Inhibition (200 µg/ml) alpha glucosidase. The method, then: The ability of the synthesized compounds to inhibit α-glucosidase was determined as per the method described by[35]. […] After incubation at 37 °C for 10 min, the reaction was initiated by adding 25 µL of substrate (4 mM) and further incubating at 37 °C for 20 min. The absorbance was measured at 405 nm.

Series [5] has as its system STZ-induced diabetic rats. As to the kind of experiment: Fasting blood glucose and oral glucose tolerance test (OGTT). The series is classed as in vivo, Sprague Dawley rats. The method, then:
[…] After 5 days of streptozotocin injection, the tail vein blood will be collected to determine the fasting blood glucose (FBG) level. Only rats with FBG over 200 mg/dl will be considered diabetic and used for further experimentation.
This assay will be performed in animals after fasting for an overnight (12 h). Then, rats will receive a bolus of glucose (2.0 g/kg body weight) followed by test molecule or control and plasma glucose will be measured from blood collected from tail vein at 0, 30, 60, 90 and 120 min after glucose administration. Plasma glucose levels will be analyzed using commercially available glucometer kits[40].

A short description of another series: Cytotoxicity MTT assay. The series is classed as cell-based. To be noted: mouse, 3T3 fibroblast cells, 48 h, Mean ± SD, n = 3, read-out: IC₅₀ cytotoxicity MTT. How it is done:
(§2) The cytotoxic effects of the selected compounds were evaluated against the 3T3 fibroblast cell line (Sigma-Aldrich, product no. 90020107) using the MTT (3-(4,5-dimethylthiazol-2-yl)−2,5-diphenyl tetrazolium bromide) assay, following the protocol established by Mosmann[38]. A cell suspension containing 1 × 10⁵ cells per well was seeded into a 96-well plate and incubated at 37 °C with 5% CO₂ for 48 h. The cells were then treated with different concentrations of test compounds (4, 16, 63, 250, and 1000 µg/mL, dissolved in DMSO) and incubated for an additional 48 h. Following incubation, 180 µL of MTT solution (5 mg/mL in PBS) was added to each well and incubated for 4 h. The formazan crystals formed were solubilized, and absorbance was measured at 570 nm using an ELISA reader. Celecoxib was used as a positive control.

A further series has as its system 3T3 fibroblast cell line. The series is described as follows: Cytotoxicity MTT assay. It counts as cell-based. How it is done: as §2

T2 sequence (P53341 whole entry): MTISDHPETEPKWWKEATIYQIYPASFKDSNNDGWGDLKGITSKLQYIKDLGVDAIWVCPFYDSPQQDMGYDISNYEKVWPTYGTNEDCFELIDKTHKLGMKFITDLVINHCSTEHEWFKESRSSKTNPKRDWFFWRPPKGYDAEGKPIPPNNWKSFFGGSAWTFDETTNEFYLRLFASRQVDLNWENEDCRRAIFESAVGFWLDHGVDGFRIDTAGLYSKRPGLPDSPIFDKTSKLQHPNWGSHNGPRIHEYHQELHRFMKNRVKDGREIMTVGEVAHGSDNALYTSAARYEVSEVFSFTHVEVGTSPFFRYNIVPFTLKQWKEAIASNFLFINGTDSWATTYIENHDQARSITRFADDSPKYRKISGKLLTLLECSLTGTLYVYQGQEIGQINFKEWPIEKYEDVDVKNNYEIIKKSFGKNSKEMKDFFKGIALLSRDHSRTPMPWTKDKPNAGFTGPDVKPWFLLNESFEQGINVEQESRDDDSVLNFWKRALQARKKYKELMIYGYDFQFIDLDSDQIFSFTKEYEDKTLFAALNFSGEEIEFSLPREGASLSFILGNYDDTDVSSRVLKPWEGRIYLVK

For the compound `CC(=O)Nc1ccc(S(=O)(=O)N2CC(=O)NC2=S)cc1` [FP1, N-[4-(4-oxo-2-sulfanylideneimidazolidine-1-sulfonyl)phenyl]acetamide], the “alpha-amylase inhibition in words” value at α-amylase is “lack of inhibition”. The “BW (Day 0)” value in series [1] (Day 0, baseline) is reported as 217.5 ± 8.3 g. Further, the “FBG (Day 0)” value in series [1] (Day 0, baseline) is 282.8 ± 10.3 mg/dL. Besides, in series [1] (Day 0 to Day 42), the “% Change in BW” value is −8.7%. Moreover, the “% Reduction in FBG” value in series [1] (Day 0 to Day 42) was 17.6%. In series [1] (Day 42 of treatment), the “BW (Day 42)” value was 198.6 ± 7.8 g. The “FBG (Day 42)” value in series [1] (Day 42 of treatment) was 232.9 ± 9.7 mg/dL. In series [1] (end of 6-week treatment), the HbA1C is 8.1% and 8.1 ± 0.4%. The “lipid profile effect in words” value in series [2] is on record as “marginal effects”. Moreover, the “IC₅₀ (concentration required to inhibit 50% of DPPH free radicals)” value in series [3] is recorded as 76.5 ± 2.9 µg/mL. The “DPPH free radical scavenging % inhibition” value in series [3] (3.12 µg/mL) turned out to be 12.5 ± 1.1%; in series [3] (6.25 µg/mL) it was 24.7 ± 1.8%; in series [3] (12.5 µg/mL), 38.1 ± 2.3%; in series [3] (25 µg/mL), 51.5 ± 2.7%; in series [3] (50 µg/mL), 58.9 ± 2.9%; in series [3] (100 µg/mL) it was 63.4 ± 3.0%. Also, the “DPPH free radical scavenging % inhibition” value in series [3] (200 µg/mL) is given as 67.3 ± 3.2%. The inhibition at 200 µg/mL in series [4] worked out at 45.7 ± 1.12%. Moreover, in series [5] (120 min after glucose 2.0 g/kg), the “OGTT (after 120 min)” value amounted to 310.3 ± 10.7 mg/dL. The Fasting blood glucose in series [5] (Table 7, mean ± SD, 5 rats per group) is reported as 245.9 ± 8.2 mg/dL. Also, the “FBG and OGTT reduction in words” value in series [5] (compared to diabetic control) is recorded as “mild but significant activity”. Besides, the IC50 at 48 h in “Cytotoxicity MTT assay” is greater than 900 µg/mL. Also, the Cytotoxicity category result in the series on 3T3 fibroblast cell line is “negligible cytotoxicity; also recorded: Non-toxic”. Besides, in the series on 3T3 fibroblast cell line (48 h, Mean ± SD, n = 3), the “IC₅₀ cytotoxicity MTT” value is reported as greater than 1000 ± 0.0 µg/mL.
